Tested on: hPSC-CMs
Assay: Bottom-up label-free quantitative proteomics, day 30 hPSC-CMs from pI:C-treated vs untreated progenitors
Format: cell-based, human
Protocol: Frozen CM pellets from day 30 in the H9 cTnT-GFP reporter cell line with or without pI:C treatment were washed with Ca^2+-free DPBS and centrifuged at 10,000 g for 10 min and the wash solvent was removed. 10 μl of 4 M urea, 0.5 M ammonium bicarbonate, 1 mM DTT, 10 mM L-methionine was added to the each pellet, and the pellets were vortexed and sonicated for 5 min, followed by incubation with shaking at 50° C. for 10 min. ProteaseMax™ surfactant was added to a final concentration of 0.04% and the pellets were vortexed and incubated at 37° C. for 10 min. 30 μl of water was added to the pellets, and the pellets were incubated at 80° C. for 20 min. After centrifugation at 16,000 g for 10 min, the supernatant was collected for Bradford assay to determine protein concentration. All samples were diluted to 800 ng/μl using 1 M urea and 125 mM ammonium bicarbonate, and 50 μl of the extract was reduced with 10 mM DTT for 30 min at 37° C., followed by alkylation with 25 mM Iodoacetamide for 30 min at room temperature in dark. The pH of the samples were tested to make sure the pH was between 7-8 and Trypsin Gold (Promega®) was added to a final trypsin to substrate ratio of 1:50 and incubated at 37° C. for overnight (16 hrs). Acetic acid was added to a final concentration of 5% (pH˜3) and the samples were centrifuged at 16,000 g for 30 min prior to LC-MS analysis.
Label-free quantitative proteomics analysis was performed using a high-resolution q-TOF mass spectrometer (Impact II, Bruker Daltonics). 3.6 μg of the protein digest were injected to a C18 (New Objective) trapping column for desalting at a flow rate of […] for 5 minutes. The peptides were separated on a 250 mm PicoFrit capillary column packed with 1.9 μm, 175 A Hypersil Gold aQ C18 particles (New Objective) at a flow rate of 300 nl/min by a gradient of 5-45% mobile phase B (0.1% formic acid in acetonitrile) (mobile phase A: 0.1% formic acid in water). The capillary column tip was customized to fit into the CaptiveSpray nanoESI source (Bruker Daltonics) for direct delivery of samples to the mass spectrometer. The most abundant 30 ions were selected for fragmentation by tandem MS (MS/MS) with an active (dynamic) exclusion time of 45 sec. The control group with and without pI:C treatment were analyzed with 5 and 6, respectively, biological replicates. Each sample was analyzed with 3 injection replicates. Protein identification and quantification were performed using the MaxQuant v1.5.7. Proteins were considered identified when at least 1 unique peptide was identified in at least 2 of the biological replicates. Label-free protein quantification was performed by first normalizing the intensity of the proteins (measured by both unique and razer peptides) to the median intensity of the same dataset, and the maximum and minimum of all the non-zero values (if more than 5 values are non-zero) were removed prior to averaging the datasets from the same group. […] Protein-protein interaction analysis was performed using the STRING database.

[1] = p<0.05 and >50% change, about 2,600 proteins detected

With polyinosinic-polycytidylic acid [pI:C] the “number of proteins significantly downregulated” value [1] was 100 proteins, the “number of proteins significantly upregulated” value [1] was 168 proteins and the Fold change (protein ABHD10) was 2.205. It also gave a Fold change (protein ACSF2) of 1.971, a Fold change (protein AGK) of 2.084 and a Fold change (protein AIFM1) of 2.224. The Fold change (protein AK4) was 0.122, the Fold change (protein AKAP12) was 0.2108 and the Fold change (protein ALDH18A1) was 0.259. For the same substance, the Fold change (protein ARL6IP1) was 0.2711, the Fold change (protein ATP5F1) was 3.556 and the Fold change (protein ATP6V1F) was 0.284. The Fold change (protein BMP1) was 2.714, the Fold change (protein C5orf24) was 0.2927 and the Fold change (protein CALD1) was 0.3099. The Fold change (protein CAPZA1) was 0.3292, the Fold change (protein CBWD1) was 0.3341 and the Fold change (protein CDC37) was 0.3347. For the same substance, the Fold change (protein CDK9) was 1.954, the Fold change (protein CDKN1B) was 0.3393 and the Fold change (protein CFC1, CFC1B) was 2.61. For the same substance, the Fold change (protein CISD1) was 6.047, the Fold change (protein CLNS1A) was 0.3492 and the Fold change (protein CLPX) was 3.1174. The Fold change (protein COL1A2) was 0.3554, the Fold change (protein COL2A1) was 4.221 and the Fold change (protein COL3A1) was 0.3719. It also gave a Fold change (protein COL18A1) of 0.3541, a Fold change (protein CPS1) of 0.3857 and a Fold change (protein CRLF3) of 0.3949. The Fold change (protein CYB5R3) was 2.279, the Fold change (protein DBT) was 71.68 and the Fold change (protein DCXR) was 1.952. The Fold change (protein DKC1) was 0.3962, the Fold change (protein DSG2) was 0.3991 and the Fold change (protein DYNLL1) was 0.407. The Fold change (protein EDC4) was 0.4111, the Fold change (protein EEF1B2) was 0.416 and the Fold change (protein EIF3A) was 0.4235. It also gave a Fold change (protein EIF3K) of 0.4335, a Fold change (protein ELAC2) of 0.4539 and a Fold change (protein EMC1) of 3.674. It also gave a Fold change (protein EPN1) of 2.525, a Fold change (protein EPS15L1) of 2.414 and a Fold change (protein ERLIN2) of 2.026. It also gave a Fold change (protein EXOSC6) of 0.4623, a Fold change (protein FABP5) of 0.4749 and a Fold change (protein FLNA) of 0.4757. It also gave a Fold change (protein FLNB) of 0.4767, a Fold change (protein FUBP1) of 0.484 and a Fold change (protein H6PD) of 0.4845. The Fold change (protein HEATR6) was 0.4857, the Fold change (protein HEBP2) was 0.4867 and the Fold change (protein HIST1H2AJ) was 4.696. For the same substance, the Fold change (protein HMGCS1) was 0.5003, the Fold change (protein HSDL1) was 2.135 and the Fold change (protein IMMT) was 2.059. The Fold change (protein IQGAP1) was 0.5083, the Fold change (protein ISOC1) was 0.5114 and the Fold change (protein ITM2B) was 2.861. It also gave a Fold change (protein KLC4) of 0.5119, a Fold change (protein KRT18, KRT35) of 0.5128 and a Fold change (protein KRT19) of 0.5211. For the same substance, the Fold change (protein LAMA1) was 2.03, the Fold change (protein LGALS1) was 0.5211 and the Fold change (protein LMCD1) was 0.5226. It also gave a Fold change (protein LNP) of 2.183, a Fold change (protein LRRC59) of 0.5235 and a Fold change (protein MAP2K4) of 2.414. It also gave a Fold change (protein MEST) of 0.5333, a Fold change (protein MRPS22) of 1.976 and a Fold change (protein MT-ATP8) of 2.244. For the same substance, the Fold change (protein MTCH2) was 1.99, the Fold change (protein MYL6) was 0.534 and the Fold change (protein MYO9B) was 2.112. For the same substance, the Fold change (protein NDUFA4) was 2.128, the Fold change (protein NGLY1) was 0.5359 and the Fold change (protein NIT2) was 0.5435. For the same substance, the Fold change (protein NNT) was 1.994, the Fold change (protein NSDHL) was 2.081 and the Fold change (protein NUP85) was 2.249. The Fold change (protein OGFR) was 0.5517, the Fold change (protein ORF1) was 2.257 and the Fold change (protein P4HB) was 0.5531. For the same substance, the Fold change (protein PCCA) was 2.032, the Fold change (protein PDLIM1) was 0.5561 and the Fold change (protein PDLIM3) was 0.557. The Fold change (protein PHB2) was 1.952, the Fold change (protein RAC1) was 2.128 and the Fold change (protein RAD54L2) was 4.857. The Fold change (protein RRAS) was 3.82, the Fold change (protein SLC25A1) was 2.333 and the Fold change (protein SLC25A3) was 2.195. For the same substance, the Fold change (protein SLC25A12) was 1.968, the Fold change (protein SMG7) was 3.817 and the Fold change (protein THBS1, THBS3, THBS2) was 3.483. The Fold change (protein TMEM65) was 2.197, the Fold change (protein UACA) was 1.958 and the Fold change (protein UBE4A) was 5.484. For the same substance, the Fold change (protein UQCRB) was 3.665, the Fold change (protein USMG5) was 2.085 and the Fold change (protein XPO7) was 2.231.

Reference: patent publication US11352604B2, “Method of making cardiomyocytes from human pluripotent cells” (Wisconsin Alumni Research Foundation, priority 2016, dated 2022)
